In US20030207830A1, “Mutant NDP kinases for antiviral nucleotide analog activation and therapeutic uses thereof” (priority 2002, published 2003):

What was measured:
[1] = target: T1, human NDP kinase A (NDPK-A) variant L55H-N115S, SEQ ID NO: 3 (Homo sapiens, UniProt P15531, L55H/N115S); assay: Pre-steady-state phosphotransfer, fluorescence stopped-flow; format: biochemical; conditions: substitution of Asn 115 for Ser and Leu 55 for His
T1 construct: made in house; host or cells: E. coli
Procedure: (§1) FIG. 3 depicts the catalytic efficiency of NDPK-A and mutants for nucleoside analogs. The rates of phosphorylation of pure recombinant NDP kinases (1 μM) were measured at the pre-steady state in a fluorescence stopped-flow with d4T-TP (10 to 80 μM). The catalytic efficiency (expressed in M^−1s^−1) was determined from the variation of the rate as a function of analog as shown in FIG. 2 (▾, NDPK-A, ♦ L55H, ● N115S, ▪ L55H-N115S).
(§2) The activity assays were performed at the pre-steady state level.
(§3) R, the specificity change, is the ratio of the catalytic efficiencies (for analog versus natural nucleotide) of the mutant compared to the wild type enzyme.
(§4) Wild type human NDPK-A and the mutants were expressed and purified according to Schneider et al., 2000, Mol Pharm. Recombinant wild type and mutant Dd-NDPK were obtained as described (Schneid, 1998a), except for N119Y NDP kinase which was partially purified by Q sepharose FF chromatography. Each protein was characterized by […] electrophoresis. The concentration of 17 kDa subunits of the enzyme was either determined by Bradford assay ([…]) or using an absorbance coefficient of ΔA^280=1.249 for a 1 mg/mL solution of human wild type and N115S NDPK-A, and =0.55 for wild type and mutant N119S, N119T Dd-NDP kinases, respectively.
(§5) As the diphosphate form of analogs were not always available, the triphosphate analogs were used to study phosphate transfer in reaction as in Scheme I. Experiments were performed with an Hi-Tech DX2 microvolume stopped-flow reaction (Schneider, 1998) at Aexc=296 nm (for Ado derivatives) or […] (for other nucleotides), 2 mm excitation slit and a 320 nm cutoff filter at the emission. After mixing NDPK (1 μM) and NTP or an analogTP (10-500 μM), the intrinsic protein fluorescence was recorded for 10-200 sec. In each experiment, 400 pairs of data were recorded, and the data from 3-4 identical experiments were averaged and fitted to a number of non-linear analytical equations using the software provided by Hi-Tech.
(§6) The data were analyzed using the reaction scheme: [drawing 1]
(§7) In both the forward and the reverse reactions, the product concentration remains very low, thus the product binding can be neglected, and the observed single step could be attributed to the phosphotransfer (Schneider, 1998). The rate of this observed single step is: [formula]
and reaches a limiting value (k+2) at NTP saturation. […] Therefore, catalytic efficiencies of phosphorylation (CEphos=k+2/(k−1/k+1)=k+2/KS) were measured, which are equivalent to second order constants and allow a reliable comparison of a variety of NDP kinase substrates.

[2] = tested on: E. coli BL21 (DE3) cells expressing L55H-N115S NDPK-A
Procedure: (§12) The cells were grown at 37° C. in exponential phase in minimum medium. They were then complemented with various concentrations of AZT, and turbidity at 600 nm was measured after 4H. Transformation with the vector without insertion served as a control.
(§13) Wild type and mutated NDP kinases were overexpressed in E. coli cells, and the sensitivity of exponentially growing cells to AZT was assayed after induction of NDP kinase expression by IPTG. The viability was estimated by plating and counting the cells.
(§14) The sensitivity to AZT of E. coli transformed with NDP kinase expression vectors was evaluated. Bacteriea BL21 (DE3) (Stratagene) were transformed by heat shock with pJC20 vectors (Schaertl, 1998) expressing either the wild type NDPK-A (pJC20-HA), the mutant enzyme N115S (pJC20-N115S), the double mutant enzyme L55H-N115S (pJC20-L55H-N115S), or without insertion (pJC20). Bacteria were grown at 37° C. in M9 liquid medium supplemented with casaminoacids (Dilco ref.) in exponential phase, then 10 μM IPTG was added. After 1 hour, cells were complemented with AZT from 10^−7 mg/mL to 10^−4 mg/mL for 4 hours. One mL of bacteria was plated onto LB agar, incubated overnight at 37° C., and counted.

[3] = tested on: E. coli BL21 (DE3) cells transformed with pJC20; assay: AZT sensitivity of E. coli transformed with plasmid without insertion; format: cell-based; conditions: versus bacteria expressing NDPK-A, N115S-NDPK-A and L55H-N115S-NDPK-A, range tested
Procedure: as §12, §13, §14

[4] = target: T2, Dictyostelium discoideum NDP kinase (Dd-NDPK) variant N119S, SEQ ID NO: 1 (Dictyostelium discoideum, UniProt P22887, N119S); assay: Pre-steady-state phosphotransfer, fluorescence stopped-flow; format: biochemical
T2 construct: made in house
Procedure: (§8) (A) Kinetics of reaction of phosphorylated Dictyostelium wild type and N119S NDP kinases by 100 μM Acyclovir diphosphate (Acy-DP). The phosphorylated enzyme was prepared with a stoichiometry #1 as described (Deville-Bonne 1996). The kinases were preincubated with ATP in excess in buffer T (50 mM Tris-HCl, pH 7.5, 5 mM MgCl2 and 75 mM KCl). The increase in fluorescence upon mixing the phospho-enzyme (1 μM, final concentration) with Acy-DP in buffer T at 20° C. was monitored with a stopped-flow. The solid lines represent the best fit of each curve to a monoexponential.
(§9) (B) Concentration dependence of the rate constant on Acy-DP concentation. The pseudo-first order rate constant for the reaction (kobs) was plotted against Acy-DP.
All numbers in italics have already been published (Schneider, 1998, 2000) The kinetic constants were measured at the pre-steady-state level using a fluorescence stopped-flow device. The binding constants were determined at equilibrium by recording the increase in fluorescence (Schneider, 2000). Values are the average of three independent determinations.
as §4
as §5, with “Hi-Tech. All curves fitted to single exponentials.” for “Hi-Tech.”
as §6, §7
and reaches a limiting value (k+2) at NTP saturation. Saturation could not be obtained with the concentrations of any NTP used here. Therefore, catalytic efficiencies of phosphorylation (CEphos=k+2/(k−1/k+1)=k+2/KS) were measured, which are equivalent to second order constants and allow a reliable comparison of a variety of NDP kinase substrates.

[5] = target: T3, phosphorylated Dictyostelium wild type NDP kinase (Dictyostelium discoideum, UniProt P22887); assay: Stopped-flow kinetics of phosphorylated enzyme with Acy-DP, wild type; format: biochemical; conditions: phospho-enzyme 1 μM, buffer T, 20° C.
T3 construct: made in house
T3 sequence (P22887 1-155): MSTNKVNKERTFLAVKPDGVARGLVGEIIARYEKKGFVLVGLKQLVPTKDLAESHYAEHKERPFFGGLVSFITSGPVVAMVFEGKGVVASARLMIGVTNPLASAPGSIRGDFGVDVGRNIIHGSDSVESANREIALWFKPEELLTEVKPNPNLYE
Procedure: as §8, §9

[6] = target: T4, phosphorylated Dictyostelium N119S NDP kinase (Dictyostelium discoideum, UniProt P22887, N119S); assay: Stopped-flow kinetics of phosphorylated enzyme with Acy-DP, N119S; format: biochemical
T4 construct: made in house
Procedure: as §8, §9
Acyclovir is an acyclic nucleoside analog of Gua used against Herpes Simplex Virus.

[7] = target: T5, Dictyostelium discoideum NDP kinase (Dd-NDPK) variant N119T (Dictyostelium discoideum, UniProt P22887, N119T); assay: Steady-state kinetics with ATP and dTDP, coupled enzymes; reactivity for analogs; format: biochemical; conditions: dTDP
T5 construct: made in house
T5 sequence (P22887 whole entry N119T): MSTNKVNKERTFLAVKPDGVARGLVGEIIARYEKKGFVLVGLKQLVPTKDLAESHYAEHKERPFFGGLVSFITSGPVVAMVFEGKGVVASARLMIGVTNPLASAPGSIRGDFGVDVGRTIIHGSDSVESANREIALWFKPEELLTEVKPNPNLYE
Procedure: (§10) First, by site-directed mutagenesis, a limited set of amino acid substitutions (Ser, Thr, or Tyr) at the position of Asn 119 were introduced into the active site of Dd-NDPK. The three mutant proteins were expressed and purified to homogeneity, except N119Y, which was found unstable and poorly active (0.05% of wild type activity).
(§11) The activity of NDP kinase was measured at 20° C. with ATP and dTDP as substrates using coupled enzymes (pyruvate kinase and lactate dehydrogenase) (Lascu 1993). One unit is the amount of enzyme that catalyzes the phosphotransfer of 1 μmol/min under standard conditions: [ATP]=1 mM, [dTDP]=0.2 mM. Rate constants (kcat) and Michaelis constants (Km) were determined from initial velocities for two different constant ratios of nucleotide [dTDP]/[ATP]=0.05 0.1 with [ATP] varying from 0.2 to 2 mM. kcat is expressed by enzyme subunit. The ratio of the ^apparentkcat/^apparentKM at a given concentration of the other substrate is equal to the true value of kcat/KM for a ping-pong enzyme.

[8] = target: T2, Dictyostelium discoideum NDP kinase (Dd-NDPK) variant N119S, SEQ ID NO: 1; assay: Steady-state kinetics with ATP and dTDP, coupled enzymes; format: biochemical; conditions: dTDP
Procedure: as §10, §11

[9] = Steady-state NDP kinase activity, coupled enzymes (pyruvate kinase, lactate dehydrogenase); format: biochemical; conditions: for specific activity: standard conditions: [ATP]=1 mM, [dTDP]=0.2 mM, 20° C.
Procedure: as §11

[10] = Human NDPK-A mutants, summary over several nucleotide analogs compared to natural nucleotides; format: biochemical
Procedure: as §2, §3
The mutants described so far show altered specificity for antiviral drugs and natural nucleotides. Such a switch is usually defined as R, the specificity change, reflecting the ability of a mutant enzyme to prefer the analog rather than the natural nucleotide according to the expression: [formula]
where R is the ratio of the specificity factors of the mutant compared to the original enzyme, with the specificity factor of an enzyme being defined as the ratio of the catalytic efficiencies (CE=k2/KS) for a nucleotide analog and the natural nucleotide.

[11] = Pre-steady-state phosphotransfer of human NDPK-A and mutants with d4T-TP; format: biochemical; conditions: ratio of catalytic efficiencies
Procedure: as §1
The intrinsic fluorescence properties of the three mutants were not affected by the mutations and were quenched upon phosphorylation of the catalytic His, as observed with wild type NDP kinase (Deville-Bonne, 1996). […]
as §5, with “Hi-Tech. […]” for “Hi-Tech.”

[12] = Reactivity of Dd-NDPK Asn 119 mutants for nucleotide analogs; format: biochemical; conditions: Dd-NDPK mutant versus wild type
Description: as §10

[13] = identical concentrations of Acy-DP

T1 sequence (P15531 whole entry L55H/N115S): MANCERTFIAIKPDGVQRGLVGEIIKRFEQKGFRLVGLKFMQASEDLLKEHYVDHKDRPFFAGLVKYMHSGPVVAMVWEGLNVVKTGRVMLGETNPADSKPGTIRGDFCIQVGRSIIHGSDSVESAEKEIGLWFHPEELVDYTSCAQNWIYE

In the case of `Cc1cn([C@H]2C[C@H](N=[N+]=[N-])[C@@H](CO)O2)c(=O)[nH]c1=O` [AZT], the “enhancement of ability to phosphorylate” value [1] is reported as 200-300 times, the viable cells ([2]; AZT 5 and 10 ng/ml, double mutant versus wild type enzyme or N115S mutant) is reported as “fewer viable cells” and the “sensitization to AZT” value ([2]; E. coli transfected with the double mutant enzyme) is reported as “increased sensitization to AZT”. For the same molecule, the “sensitivity to AZT” value [3] was “less sensitive to AZT”.

With `Nc1nc2c(ncn2COCCOP(=O)(O)OP(=O)(O)O)c(=O)[nH]1` [Acy-DP, Acyclovir diphosphate] the “improvement of catalytic efficiency of phosphorylation by the mutation” value ([4]; from [Acy-DP] dependency of kobs) was “seven fold”, the “phosphorylation rate relative to wild type enzyme” value [4, 13] was “seven times faster” and the “apparent second order constant, wild type NDP kinase” value [5] was 670 M⁻¹ s⁻¹. The “times faster phosphorylation by N119S NDP kinase than wild type enzyme” value [6, 13] was “seven” and the “apparent second order constant, N119S mutant” value ([6]; phospho-enzyme 1 μM, buffer T, 20° C.) was 4,500 M^−1s^−1.

In the case of `Cc1cn([C@H]2C[C@H](O)[C@@H](COP(=O)(O)OP(=O)(O)O)O2)c(=O)[nH]c1=O` [dTDP], the “kcat, times lower than wild type enzyme” value [7] is reported as “three”, the “effect on KM” value ([7]; versus wild type) is reported as “little effect on KM” and the “kcat, times lower than wild type enzyme” value [8] is reported as “ten times lower”. For the same molecule, the “effect on KM” value ([8]; versus wild type) was “little effect on KM”.

For “L55H-N115S: double mutant human NDPK-A, Leu 55 to His and Asn 115 to Ser; SEQ ID NO: 3”, the specific activity [9] was 240 U/mg, the “increment in activity with analogs versus NDPK-A” value ([10]; catalytic efficiencies of Table II) was 80-100 fold and the “times more slowly / fold less reaction with d4T-TP than with dTTP” value [11] was “eight”.

For “N115S: human NDPK-A with Asn 115 changed into Ser; SEQ ID NO: 2”, the “steady-state activity relative to NDPK-A” value ([9]; ATP and dTDP) was 1/10, the specific activity [9] was 140 U/mg and the “specificity change (R), switch in specificity over analogs” value ([10]; analog versus natural nucleotide, mutant versus NDPK-A) was “around 100”.

B1: N119S: Dd NDP kinase mutated at position 119, asparagine to serine; SEQ ID NO: 1 (protein, UniProt P22887 1-155, looked up, variant N119S)
Nucleoside diphosphate …: MSTNKVNKERTFLAVKPDGVARGLVGEIIARYEKKGFVLVGLKQLVPTKDLAESHYAEHKERPFFGGLVSFITSGPVVAMVFEGKGVVASARLMIGVTNPLASAPGSIRGDFGVDVGRSIIHGSDSVESANREIALWFKPEELLTEVKPNPNLYE
With B1 the “enzyme reactivity for analogs” value [12] was “improvement” and the “catalytic constant kcat, times lower than the wild type enzyme” value ([9]; natural substrates such as dTDP, steady state, Dd-NDPK) was “ten”.
